In ChEMBL document CHEMBL5370543, “Discovery of 6-aryl-2-(3,4,5-trimethoxyphenyl)thiazole[3,2-b][1,2,4]triazoles as potent tubulin polymerization inhibitors” (Eur J Med Chem, 2023):
The source made the active and inactive calls. The rule behind the calls is not given here.

Assays:
[1] = Selectivity index, ratio of IC50 for HUVEC cells to IC50 for human SGC-7901 cells; assay type: functional
4T1 [2] = assay: Antitumor activity against mouse 4T1 cells allografted in Balb/c mouse assessed as decrease in tumor volume at 20 mg/kg, iv administered every other day measured for 12 days; assay type: functional, organism-based; conditions: time 12.0 day
[3] = Cytotoxicity against HUVEC cells assessed as cell growth inhibition incubated for 72 hrs by MTT assay; assay type: toxicity, cell-based; conditions: human
SGC-7901 [4] = assay: Antiproliferative activity against human SGC-7901 cells assessed as cell growth inhibition incubated for 72 hrs by MTT assay; assay type: functional, cell-based; conditions: SGC-7901, 72 h
4T1 [5] = assay: Cytotoxicity against mouse 4T1 cells assessed as cell growth inhibition incubated for 72 hrs by MTT assay; assay type: functional, cell-based; conditions: 4T1, 72 h
SGC-7901 [6] = assay: Induction of cell cycle arrest in human SGC-7901 cells assessed as accumulation at G2/M phase at 2 times IC50 incubated for 12 hrs by PI/RNase staining based flow cytometry (reference value: 10 %); assay type: functional
SGC-7901 [7] = assay: Induction of cell cycle arrest in human SGC-7901 cells assessed as accumulation at G2/M phase at 2 times IC50 incubated for 24 hrs by PI/RNase staining based flow cytometry (reference value: 10 %); assay type: functional
SGC-7901 [8] = assay: Induction of cell cycle arrest in human SGC-7901 cells assessed as accumulation at sub-G1 phase at 2 times IC50 incubated for 6 hrs by PI/RNase staining based flow cytometry (reference value: 2 %); assay type: functional
Tubulin (Homo sapiens) [9] = target: T1, Tubulin (Homo sapiens) (UniProt P68371+Q9H4B7+P0DPH7+P68366+Q13509+Q71U36+P04350+Q3ZCM7+P07437+P68363+Q9BQE3+Q6PEY2+Q13885+Q9BVA1+Q9BUF5); assay: Disruption of microtubule organization in human SGC-7901 cells assessed as shrinkage of microtubule network around nucleus at 2 times IC50 incubated for 12 hrs by […] based analysis; assay type: cell-based
SGC-7901 [10] = assay: Induction of cell cycle arrest in human SGC-7901 cells assessed as accumulation at S phase at 2 times IC50 incubated for 24 hrs by PI/RNase staining based flow cytometry (reference value: 46 %); assay type: functional
Tubulin (Homo sapiens) [11] = target: T1, Tubulin (Homo sapiens); assay: Binding affinity to tubulin (unknown origin) at colchicine binding site assessed as tubulin-colchicine complex competition rate at 1.25 uM preincubated for 45 mins followed by colchicine addition by fluorescence based assay relative to control; assay type: protein-complex assay
4T1 [12] = assay: Antitumor activity against mouse 4T1 cells allografted in Balb/c mouse assessed as tumor growth inhibition at 5 mg/kg, iv administered every other day measured for 12 days relative to control; assay type: functional; conditions: 4T1, 288 h, time 12 day, read-out: TGI
SGC-7901 [13] = assay: Induction of cell cycle arrest in human SGC-7901 cells assessed as accumulation at sub-G1 phase at 2 times IC50 incubated for 24 hrs by PI/RNase staining based flow cytometry (reference value: 2 %); assay type: functional
SGC-7901 [14] = assay: Induction of cell cycle arrest in human SGC-7901 cells assessed as accumulation at sub-G1 phase at 2 times IC50 incubated for 12 hrs by PI/RNase staining based flow cytometry (reference value: 2 %); assay type: functional
4T1 [15] = assay: Antitumor activity against mouse 4T1 cells allografted in Balb/c mouse assessed as tumor weight at 20 mg/kg, iv administered every other day measured after 12 days (reference value: 448 mg); assay type: functional; conditions: time 12 day
SGC-7901 [16] = assay: Induction of cell cycle arrest in human SGC-7901 cells assessed as accumulation at G2/M phase at 2 times IC50 incubated for 48 hrs by PI/RNase staining based flow cytometry (reference value: 10 %); assay type: functional
4T1 [17] = assay: Antitumor activity against mouse 4T1 cells allografted in Balb/c mouse assessed as tumor growth inhibition at 20 mg/kg, iv administered every other day measured for 12 days relative to control; assay type: functional; conditions: 4T1, 288 h, time 12 day, read-out: TGI
SGC-7901 [18] = assay: Induction of cell cycle arrest in human SGC-7901 cells assessed as accumulation at G2/M phase at 2 times IC50 incubated for 72 hrs by PI/RNase staining based flow cytometry (reference value: 10 %); assay type: functional
SGC-7901 [19] = assay: Induction of cell cycle arrest in human SGC-7901 cells assessed as accumulation at S phase at 2 times IC50 incubated for 12 hrs by PI/RNase staining based flow cytometry (reference value: 46 %); assay type: functional
SGC-7901 [20] = assay: Induction of cell cycle arrest in human SGC-7901 cells assessed as accumulation at sub-G1 phase at 2 times IC50 incubated for 48 hrs by PI/RNase staining based flow cytometry (reference value: 2 %); assay type: functional
Tubulin = assay: (§1) Inhibition of tubulin polymerization (unknown origin) by fluorescence based assay; assay type: protein-complex assay, Homo sapiens
Tubulin (Homo sapiens) [21] = target: T1, Tubulin (Homo sapiens); assay: as §1; assay type: protein-complex assay
SGC-7901 [22] = assay: Induction of cell cycle arrest in human SGC-7901 cells assessed as accumulation at G0/G1 phase at 2 times IC50 incubated for 6 hrs by PI/RNase staining based flow cytometry (reference value: 42 %); assay type: functional
4T1 [23] = assay: Antitumor activity against mouse 4T1 cells allografted in Balb/c mouse assessed as tumor weight at 5 mg/kg, iv administered every other day measured after 12 days (reference value: 448 mg); assay type: functional; conditions: time 12 day
SGC-7901 [24] = assay: Induction of cell cycle arrest in human SGC-7901 cells assessed as accumulation at sub-G1 phase at 2 times IC50 incubated for 72 hrs by PI/RNase staining based flow cytometry (reference value: 2 %); assay type: functional
SGC-7901 [25] = assay: Induction of cell cycle arrest in human SGC-7901 cells assessed as accumulation at G0/G1 phase at 2 times IC50 incubated for 24 hrs by PI/RNase staining based flow cytometry (reference value: 42 %); assay type: functional
SGC-7901 [26] = assay: Induction of cell cycle arrest in human SGC-7901 cells assessed as accumulation at G0/G1 phase at 2 times IC50 incubated for 12 hrs by PI/RNase staining based flow cytometry (reference value: 42 %); assay type: functional
4T1 [27] = assay: Antitumor activity against mouse 4T1 cells allografted in Balb/c mouse assessed as tumor weight at 10 mg/kg, iv administered every other day measured after 12 days (reference value: 448 mg); assay type: functional; conditions: time 12 day
SGC-7901 [28] = assay: Induction of cell cycle arrest in human SGC-7901 cells assessed as accumulation at S phase at 2 times IC50 incubated for 72 hrs by PI/RNase staining based flow cytometry (reference value: 46 %); assay type: functional
[29] = Toxicity in Balb/c mouse allografted with mouse 4T1 cells assessed as decrease in body weight at 20 mg/kg, iv administered every other day measured for 12 days; assay type: organism-based; conditions: in vivo, 288 h, time 12 day
SGC-7901 [30] = assay: Induction of cell cycle arrest in human SGC-7901 cells assessed as accumulation at S phase at 2 times IC50 incubated for 48 hrs by PI/RNase staining based flow cytometry (reference value: 46 %); assay type: functional
SGC-7901 [31] = assay: Induction of cell cycle arrest in human SGC-7901 cells assessed as accumulation at G2/M phase at 2 times IC50 incubated for 6 hrs by PI/RNase staining based flow cytometry (reference value: 10 %); assay type: functional
SGC-7901 [32] = assay: Induction of cell cycle arrest in human SGC-7901 cells assessed as accumulation at G0/G1 phase at 2 times IC50 incubated for 48 hrs by PI/RNase staining based flow cytometry (reference value: 42 %); assay type: functional
HT-1080 = assay: Antiproliferative activity against human HT-1080 cells assessed as cell growth inhibition incubated for 72 hrs by MTT assay; assay type: functional, cell-based; conditions: HT-1080, 72 h
4T1 [33] = assay: Antitumor activity against mouse 4T1 cells allografted in Balb/c mouse assessed as tumor growth inhibition at 10 mg/kg, iv administered every other day measured for 12 days relative to control; assay type: functional; conditions: 4T1, 288 h, time 12 day, read-out: TGI
MCF7 = assay: Antiproliferative activity against human MCF7 cells assessed as cell growth inhibition incubated for 72 hrs by MTT assay; assay type: functional, cell-based; conditions: MCF7, 72 h
SGC-7901 [34] = assay: Induction of cell cycle arrest in human SGC-7901 cells assessed as accumulation at S phase at 2 times IC50 incubated for 6 hrs by PI/RNase staining based flow cytometry (reference value: 46 %); assay type: functional

COc1cc(-c2nc3scc(-c4cc(Cl)cc(Cl)c4)n3n2)cc(OC)c1OC
Ratio IC50 [1]: 62.62 | Activity (4T1 [2]): Active | IC50 at 72 h [3]: 13200 nM | IC50 (SGC-7901 [4]): 210 nM | IC50 (4T1 [5]): 341 nM | Activity (SGC-7901 [6]): 31% | Activity (SGC-7901 [7]): 42% | Activity (SGC-7901 [8]): 2% | Activity (Tubulin (Homo sapiens) [9]): Active | Activity (SGC-7901 [10]): 21% | Activity (Tubulin (Homo sapiens) [11]): 37.9% | inhibition in vivo at 5 mg/kg (4T1 [12]): 49.2% | Activity (SGC-7901 [13]): 21% | Activity (SGC-7901 [14]): 17% | Activity (4T1 [15]): 71.76 mg | Activity (SGC-7901 [16]): 19% | inhibition in vivo at 20 mg/kg (4T1 [17]): 84% | Activity (SGC-7901 [18]): 4% | Activity (SGC-7901 [19]): 31% | Activity (SGC-7901 [20]): 69% | IC50 (Tubulin): 6870 nM | inhibition (Tubulin (Homo sapiens) [21]): Dose-Dependent Effect | Activity (SGC-7901 [22]): 36% | Activity (4T1 [23]): 227.5 mg | Activity (SGC-7901 [24]): 93% | Activity (SGC-7901 [25]): 16% | Activity (SGC-7901 [26]): 21% | Activity (4T1 [27]): 187.74 mg | Activity (SGC-7901 [28]): 3% | Activity [29]: Non-Toxic | Activity (SGC-7901 [30]): 8% | Activity (SGC-7901 [31]): 13% | Activity (SGC-7901 [32]): 4% | IC50 (HT-1080): 1180 nM | inhibition in vivo at 10 mg/kg (4T1 [33]): 58.1% | IC50 (MCF7): 2130 nM | Activity (SGC-7901 [34]): 49%
